Source: patent US20190218531A1 (priority 2018, published 2019)

Test system: B. subtilis 3610
Type: cell-based, Bacillus subtilis

Row | Structure (SMILES) | effect on inhibition of B. subtilis growth in co-culture with S. elongatus
1 | CN(C)C(=O)Nc1ccc(Cl)c(Cl)c1 [DCMU, 3-(3,4-dichlorophenyl)-1,1-dimethylurea] | mitigated
2 | O=S(O)(O)=S [thiosulfate] | mitigated
